{"source": "patent US12274686B2", "about": "“Specialized pro-resolving mediators (SPMs) as melanocyte growth promoter and pro-survival factors and uses thereof” (THE UNIVERSITY OF BRITISH COLUMBIA, priority 2021, dated 2025)", "key": {"vitiligo patches": {"system": "vitiligo patches", "test": "Topical treatment of vitiligo patches refractory to topical anti-inflammatory therapies (single subject)", "assay_type": "in vivo, human", "conditions": "for change in the size of the white areas: mometasone fumarate 0.1% cream BID (abdominal macule), clobetasol 0.05% cream OD (two patches right hand), 12 months", "protocol": "Topical maresin 1 was tested on a person with a 5 year and 3 month history of developing two white patches on the dorsal right hand and one white macule on the right mid abdomen. […] There were no signs of inflammation such as redness, or presence of scales. There were no symptoms such as itchiness or pain. […] On examination, the subject appeared to be well. Complete skin examination was performed. The entire skin appeared to be normal aside from three lesions of depigmentation: (1) a 1.5×1.2 cm white patch on the mid right abdomen; (2) a 1.3×1.0 cm white patch on the dorsum of right third metacarpal head; and (3) a 1.0×0.8 cm sized white macule on the dorsum of right 4th metacarpal head."}, "[1]": {"system": "primary human epidermal melanocytes", "test": "Melanocyte survival assay in vitro (growth factor supplement withdrawn), CellTiter-Blue viability", "assay_type": "cell-based", "conditions": "for ability to protect melanocytes: physiological distress", "protocol": "Human neonatal epidermal melanocytes (HEMn-DP) were purchased from ThermoFisher Scientific™ (C-202-5C). Melanocytes were cultured in full growth medium (Medium 254 supplemented with Human Melanocyte Growth Supplement, both purchased from ThermoFisher Scientific™. Cells were expanded and passaged 3 times before conducting the assay. 4×10^3 melanocytes per well were seeded into 96 well plate and allowed to recover for 4 hours before the treatment was added for each condition in 100 μl final volume. Cells were treated and kept in 37° C., 5% CO2 for 3 days. Viability assay was conducted using CellTiter-Blue Cell Viability Assay Kit™ (Promega™, G8080) and signal was measured using GlowMax™ plate reader (Promega™) after 4 hours at 37° C., 5% CO2. Merasin 1 (Cayman™) was diluted into 1 μg/ml using PBS and added to the culture medium at concentrations ranging from 0 to 1 μg/ml. For survival assays, the procedure was essentially the same as proliferation assay except that melanocytes were kept in M254 medium without human melanocyte growth supplement. The assays were conducted in triplicates."}, "B6 mouse canities model": {"system": "B6 mouse canities model", "test": "B6 mouse model of canities (spontaneous hair greying) and aging-associated weight gain", "assay_type": "in vivo, C57BL/J6 mice", "conditions": "800 ng maresin 1 IP three times a week", "excerpt": "To observe aging-associated spontaneous hair greying (canities), C57BL/J6 mice aged 8 weeks were purchased from JAX Labs™ and kept in standard conditions for 8 weeks. The fur color as well as overall appearance and behaviors were monitored daily by visual inspection and by photography. By 6-8 weeks, about 20-40% of the mice would develop spontaneous canities. At the end of observation, central venous blood was collected and used for ELISA analysis using maresin 1 ELISA kit (Caymen Chemicals™) following the manufacturers' recommended protocol with purified maresin 1 serving as the chemical standard.\nC57BL/J6 mice from The Jackson Laboratory™, 8 weeks of age were divided into two groups that received intraperitoneal injections of maresin 1 (800 ng in 100 μl saline) or saline alone three times a week for 6 weeks. […] At the end of the experiment, the mice were photographed and weighed."}, "B6 mouse Vitiligo model": {"system": "B6 mouse Vitiligo model", "test": "B6 mouse model of vitiligo with TRP2 immunization", "assay_type": "in vivo, C57BL/J6 mice", "excerpt": "([…], Deming Regression). * p<0.05 (two tailed t test).\nEight week old female C57BL/J6 mice were ordered from The Jackson Laboratory™, and fed a standard diet of Animal Care Facility of Vancouver Coastal Health Research institute (4 mice/cage). For induction of vitiligo, mice were immunized by intradermal injections (ID, starting at Day 0) at the left hock, and repeated at 2-week, using the method described by S. You et al. that efficiently induces melanocyte specific CD8+ T cell responses^(53). The immunogen consisted of TRP2-180 (50 μg) peptide mixed with LPS (5 μg) and CpG ODN 1826 (5 μg) in 50 μL of PBS solution per mouse per injection. Immunization response score was recorded at 48 hours after the first immunization by evaluating the redness and swelling (0=none, 1=mild, 2=moderate, 3=severe). For assessing macrophage M1 and M2 populations, the TRP-immunized and non-immunized mice were anaesthetized 48 hours after immunization for skin sampling at the immunization site and used for cell isolation as described above.\nFor assessing the effects of maresin 1 treatment, C57BL/J6 mice were randomly assigned to the sham injection control group (200 μl saline IP, n=20) and the Maresin 1 injection group (800 ng in 200 μl saline IP, n=20). […] Mice were monitored 5 times per week and evaluated using a Depigmentation Area Scoring Template (0-5) (FIG. 5C). […]"}, "[2]": {"system": "skin resident M2 macrophages", "test": "Skin resident M1 (CD80+) / M2 (CD163+) macrophages by flow cytometry in B6 mice with or without maresin 1", "assay_type": "in vivo, C57BL/J6 mice", "protocol": "For isolation of macrophages from murine skin: 1 cm×1 cm sized skin samples were cut into small pieces, placed in a solution of PBS containing 1 mg/ml dispase (Roche™) and incubated for 1 hour at 37° C. The samples were then transferred into RPMI containing 1 mg/ml Collagenase IV and 0.1 mg/ml DNAse (Sigma Aldrich™) and incubated for 90 minutes at 37° C. Single cell suspension was prepared by passing through 100 μm strainer. Cells were washed and stained in PBS without Ca^2+ and Mg^2+ supplemented with 1% heat-inactivated FCS. Cell surface staining panel included anti-mouse CD163-BV421™, CD80-Alexa fluor 647™, and CD11b-Percp Cy5.5™ (Biolegend™) for 30 minutes at 4° C. Cells were washed with PBS and analyzed with LSRII™ cell sorter (BD Biosciences™).\nEight week old female C57BL/J6 mice were ordered from The Jackson Laboratory™, and fed a standard diet of Animal Care Facility of Vancouver Coastal Health Research institute (4 mice/cage). For induction of vitiligo, mice were immunized by intradermal injections (ID, starting at Day 0) at the left hock, and repeated at 2-week, using the method described by S. You et al. that efficiently induces melanocyte specific CD8+ T cell responses^(53). […] Immunization response score was recorded at 48 hours after the first immunization by evaluating the redness and swelling (0=none, 1=mild, 2=moderate, 3=severe). […]"}, "[3]": {"conditions": "cultured human epidermal melanocytes"}}}
{"molecule": "C[C@H]1C[C@H]2[C@@H]3CCC4=CC(=O)C=C[C@]4(C)[C@@]3(F)[C@@H](O)C[C@]2(C)[C@@]1(O)C(=O)CCl", "note": "[clobetasol, reference compound]", "values": [{"measurement": "change in the size of the white areas", "setting": "vitiligo patches", "result": "did not notice any change"}]}
{"molecule": "CCCCC[C@H](O)/C=C/C=C\\C=C\\C=C\\[C@@H](O)[C@@H](O)CCCC(=O)O", "note": "[lipoxin A4, reference compound]", "values": [{"measurement": "pro-survival effects on the melanocytes in vitro", "setting": "[1]; SPMs 0 to 300 ng/ml, cultured human epidermal melanocytes", "result": "significantly decreased melanocyte survival"}, {"measurement": "ability to protect melanocytes", "setting": "[1]; [3]", "result": "accelerated melanocyte depletion"}]}
{"molecule": "CCCCC[C@@H](O)[C@H](O)/C=C/C=C/C=C\\C=C\\[C@@H](O)CCCC(=O)O", "note": "[lipoxin B4, 5S,14R,15S-trihydroxy-6E,8Z,10E,12E-eicosatetraenoic acid]", "values": [{"measurement": "ability to protect melanocytes", "setting": "[1]; [3]", "result": "show ability to protect melanocytes"}]}
{"molecule": "CC/C=C\\C/C=C\\C[C@H](O)\\C=C/C=C/C=C/[C@H](O)C/C=C\\CCC(=O)O", "note": "[maresin 1, 7R, 14S-dihydroxy-4Z, 8E, 10E, 12Z, 16Z, 19Z-docosahexaenoic acid]", "values": [{"measurement": "repigmentation", "setting": "vitiligo patches; 0.01% maresin 1 in ethanol twice daily, by the end of three months", "result": "significant repigmentation"}, {"measurement": "decrease of lesion area, third lesion", "setting": "vitiligo patches; 0.01% maresin 1 in ethanol twice daily, three months, 1.0×0.8 cm macule right 4th metacarpal head", "result": 11.1, "unit": "%"}, {"measurement": "decrease of lesion area, second lesion", "setting": "vitiligo patches; 0.01% maresin 1 in ethanol twice daily, three months, 1.3×1.0 cm patch right third metacarpal head", "result": 10.5, "unit": "%"}, {"measurement": "decrease of lesion area, first lesion", "setting": "vitiligo patches; 0.01% maresin 1 in ethanol twice daily, three months, 1.5×1.2 cm patch mid right abdomen", "result": 13.6, "unit": "%"}, {"measurement": "adverse events such as irritation, itchiness or redness", "setting": "vitiligo patches; 0.01% maresin 1 in ethanol, topical twice daily", "result": "did no notice any adverse events"}, {"measurement": "decrease of the areas of the three depigmented lesions (overall)", "setting": "vitiligo patches; ethanol solution containing 0.01% maresin 1 twice daily, three months", "result": 11.7, "unit": "%"}, {"measurement": "canities development", "setting": "B6 mouse canities model; saline control 15% by 15 weeks of age, p<0.0125 Log Rank", "result": "completely blocked"}, {"measurement": "aging associated weight gain", "setting": "B6 mouse canities model; saline control 17.7%, p=0.0423", "result": 14.2, "unit": "%"}, {"measurement": "ability to protect melanocytes", "setting": "[1]; [3]", "result": "show ability to protect melanocytes"}, {"measurement": "melanocyte depletion (surviving melanocytes) after growth factor supplement withdrawal", "setting": "[1]; maresin 1 10 to 300 ng/ml, three days, p<0.01", "result": "significant reduction of melanocyte depletion"}, {"measurement": "melanocyte depletion caused by growth factor withdrawal", "setting": "[1]; three days in culture, no growth factor supplement", "result": "markedly reducing melanocyte depletion"}, {"measurement": "vitiligo development (average depigmentation score at immunization site)", "setting": "B6 mouse Vitiligo model; maresin 1 800 ng/mouse IP three times per week for 8 weeks vs saline (sham)", "result": "significant reduction of vitiligo development"}, {"measurement": "immunization response (peak score, erythema + edema)", "setting": "B6 mouse Vitiligo model; maresin 1 800 ng/mouse IP, 48 hours after TRP2 immunization, vs saline", "result": "significantly reduced the immunization response"}, {"measurement": "post-immunization M2/M1 ratio at the TRP2 immunization site", "setting": "[2]; maresin 1 800 ng/mouse IP pretreatment, skin 48 hours after TRP2 immunization, CD163+/CD80+ cells", "result": "restoring the post-immunization M2/M1 ratio to a level above the pre-immunization state"}, {"measurement": "M2/M1 ratio in the skin of B6 mice", "setting": "[2]; maresin 1 treatment, increase from 0.44", "result": 5.34}]}
{"molecule": "CC/C=C\\C/C=C\\C[C@H](O)[C@H](O)/C=C/C=C/C=C\\C/C=C\\CCC(=O)O", "note": "[maresin 2, 13R,14S-dihydroxy-4Z,7Z,9E,11E,16Z,19Z-docosahexaenoic acid]", "values": [{"measurement": "ability to protect melanocytes", "setting": "[1]; [3]", "result": "show ability to protect melanocytes"}]}
{"molecule": "CC/C=C\\C[C@H](O)\\C=C/C=C/C=C/[C@H](O)C/C=C\\C/C=C\\CCC(=O)O", "note": "[protectin D1, 10R,17S-dihydroxy-4Z,7Z,11E,13E,15Z,19Z-docosahexaenoic acid]", "values": [{"measurement": "ability to protect melanocytes", "setting": "[1]; [3]", "result": "show ability to protect melanocytes"}]}
{"molecule": "CC/C=C\\C[C@H](O)[C@H](O)/C=C/C=C/C=C\\C=C\\[C@@H](O)C/C=C\\CCC(=O)O", "note": "[resolvin D2, 7S,16R,17S-trihydroxy-4Z,8E,10Z,12E,14E,19Z-docosahexaenoic acid]", "values": [{"measurement": "ability to protect melanocytes", "setting": "[1]; [3]", "result": "show ability to protect melanocytes"}]}
{"molecule": "CC[C@@H](O)/C=C/C=C\\C[C@@H](O)/C=C/C=C/C=C\\[C@@H](O)CCCC(=O)O", "note": "[resolvin E1, 5S,12R,18R-trihydroxy-6Z,8E,10E,14Z,16E-eicosapentaenoic acid]", "values": [{"measurement": "ability to protect melanocytes", "setting": "[1]; [3]", "result": "show ability to protect melanocytes"}]}
{"molecule": "mometasone fumarate [reference compound]", "values": [{"measurement": "change in the size of the white areas", "setting": "vitiligo patches", "result": "did not notice any change"}]}
